Reference: patent US20260015350A1, “AZAQUINAZOLINE PAN-KRAS INHIBITORS” (Mirati Therapeutics, Inc., priority 2022, published 2026)

What was measured:
KRas^G12S = target: T1, KRas^G12S (Homo sapiens, UniProt P01116, G12S); test: KRas binding assay (TR-FRET tracer displacement), KRas G12S; settings: for inhibition at 0.01 µM: single point, 10 nM compound, TR-FRET; for IC50: TR-FRET tracer displacement, KRas G12S
T1 construct: Biotinylated KRas (corresponding to amino acids 1-169, produced at Accelegan Inc.); biotin (biotinylated); purchased Accelegan Inc

KRas^G12V = target: T2, KRas^G12V (Homo sapiens, UniProt P01116, G12V); test: KRas binding assay (TR-FRET tracer displacement), KRas G12V
T2 construct: Biotinylated KRas (corresponding to amino acids 1-169, produced at Accelegan Inc.); biotin (biotinylated); purchased Accelegan Inc

KRas^G12C = target: T3, KRas^G12C (Homo sapiens, UniProt P01116, G12C); test: KRas binding assay (TR-FRET tracer displacement), KRas G12C; settings: for inhibition at 0.01 µM: single point, 10 nM compound, TR-FRET; for IC50: TR-FRET tracer displacement, KRas G12C
T3 construct: Biotinylated KRas (corresponding to amino acids 1-169, produced at Accelegan Inc.); biotin (biotinylated); purchased Accelegan Inc

KRas^G12R = target: T4, KRas^G12R (Homo sapiens, UniProt P01116, G12R); test: KRas binding assay (TR-FRET tracer displacement), KRas G12R
T4 construct: Biotinylated KRas (corresponding to amino acids 1-169, produced at Accelegan Inc.); biotin (biotinylated); purchased Accelegan Inc

KRas^G12D = target: T5, KRas^G12D (Homo sapiens, UniProt P01116, G12D); test: KRas binding assay (TR-FRET tracer displacement), KRas G12D
T5 construct: Biotinylated KRas (corresponding to amino acids 1-169, produced at Accelegan Inc.); biotin (biotinylated); purchased Accelegan Inc

[1] = tested on: KRas-mediated phosphorylation of ERK in HCT116 cells; test: Inhibition of KRas-mediated phosphorylation of ERK (Cisbio HTRF pERK), HCT116 cells; format: cell-based; settings: Homo sapiens; for inhibition at 0.1 µM: HCT-116, 3 h, single point, 100 nM compound, 3 hrs
In short: (§1)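 HTRF readout of phospho-ERK in cell lysates after 3 hrs of compound exposure. Dosing: 10 uM top, 3-fold steps, 10 doses, final DMSO 0.8%. Min control: 0.2 uM Trametinib. Lysis ran 40 mins at 4° C, and antibody detection 2 hrs at room temperature.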

KRas^G13D = target: T6, KRas^G13D (Homo sapiens, UniProt P01116, G13D); test: KRas binding assay (TR-FRET tracer displacement), KRas G13D; settings: for inhibition at 0.01 µM: single point, 10 nM compound, TR-FRET; for IC50: TR-FRET tracer displacement, KRas G13D
T6 construct: Biotinylated KRas (corresponding to amino acids 1-169, produced at Accelegan Inc.); biotin (biotinylated); purchased Accelegan Inc

KRas^WT = target: T7, KRas^WT (Homo sapiens, UniProt P01116); test: KRas binding assay (TR-FRET tracer displacement), KRas WT; settings: for inhibition at 0.01 µM: single point, 10 nM compound, TR-FRET; for IC50: TR-FRET tracer displacement, KRas WT
T7 construct: Biotinylated KRas (corresponding to amino acids 1-169, produced at Accelegan Inc.); biotin (biotinylated); purchased Accelegan Inc

[2] = tested on: KRas-mediated phosphorylation of ERK in H727 cells; test: Inhibition of KRas-mediated phosphorylation of ERK (Cisbio HTRF pERK), H727 cells; format: cell-based; settings: Homo sapiens; for IC50: NCI-H727, H727 cells, HTRF pERK; for inhibition at 0.1 µM: NCI-H727, 3 h, single point, 100 nM compound, 3 hrs, H727 cells
In short: (§2)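 Signal read by HTRF (d2/Cryptate antibody pair, 2 hr room-temperature incubation on lysate). Cells: 6,000 per well, 3 hr compound exposure. Titration: 10 uM highest, 3-fold, 10 points.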

[3] = tested on: KRas-mediated phosphorylation of ERK in H460 cells; test: Inhibition of KRas-mediated phosphorylation of ERK (Cisbio HTRF pERK), H460 cells; format: cell-based; settings: Homo sapiens; for inhibition at 0.1 µM: NCI-H460, 3 h, single point, 100 nM compound, 3 hrs
In short: as §2

[4] = tested on: KRas-mediated phosphorylation of ERK in AsPC-1 cells; test: Inhibition of KRas-mediated phosphorylation of ERK (Cisbio HTRF pERK), AsPC-1 cells; format: cell-based; settings: Homo sapiens; for IC50: ASPC1, AsPC-1 cells, HTRF pERK; for inhibition at 0.1 µM: ASPC1, 3 h, single point, 100 nM compound, 3 hrs, AsPC-1 cells
In short: as §2

KRas^Q61H = target: T8, KRas^Q61H (Homo sapiens, UniProt P01116, Q61H); test: KRas binding assay (TR-FRET tracer displacement), KRas Q61H; settings: for inhibition at 0.01 µM: single point, 10 nM compound, TR-FRET; for IC50: TR-FRET tracer displacement, KRas Q61H
T8 construct: Biotinylated KRas (corresponding to amino acids 1-169, produced at Accelegan Inc.); biotin (biotinylated); purchased Accelegan Inc

KRas^G12A = target: T9, KRas^G12A (Homo sapiens, UniProt P01116, G12A); test: KRas binding assay (TR-FRET tracer displacement), KRas G12A; settings: for inhibition at 0.01 µM: single point, 10 nM compound, TR-FRET; for IC50: TR-FRET tracer displacement, KRas G12A
T9 construct: Biotinylated KRas (corresponding to amino acids 1-169, produced at Accelegan Inc.); biotin (biotinylated); purchased Accelegan Inc

[5] = tested on: KRas-mediated phosphorylation of ERK in H358 cells; test: Inhibition of KRas-mediated phosphorylation of ERK (Cisbio HTRF pERK), H358 cells; format: cell-based; settings: Homo sapiens; for inhibition at 0.1 µM: NCI-H358, 3 h, single point, 100 nM compound, 3 hrs
In short: as §2

[6] = tested on: KRas-mediated phosphorylation of ERK in A549 cells; test: Inhibition of KRas-mediated phosphorylation of ERK (Cisbio HTRF pERK), A549 cells; format: cell-based; settings: Homo sapiens; for inhibition at 0.1 µM: A549, 3 h, single point, 100 nM compound, 3 hrs
In short: as §1

T7 sequence (P01116 1-169 isoform P01116-2): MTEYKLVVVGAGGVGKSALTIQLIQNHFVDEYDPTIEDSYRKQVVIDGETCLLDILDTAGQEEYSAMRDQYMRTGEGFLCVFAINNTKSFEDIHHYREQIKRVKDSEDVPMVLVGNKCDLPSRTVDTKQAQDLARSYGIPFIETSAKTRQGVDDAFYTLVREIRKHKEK
T3 sequence (P01116 1-169 isoform P01116-2 G12C): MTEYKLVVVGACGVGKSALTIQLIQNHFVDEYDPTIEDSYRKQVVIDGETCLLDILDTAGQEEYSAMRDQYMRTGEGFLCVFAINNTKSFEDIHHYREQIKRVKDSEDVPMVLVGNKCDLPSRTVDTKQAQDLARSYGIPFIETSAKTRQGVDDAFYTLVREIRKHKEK
T8 sequence (P01116 1-169 isoform P01116-2 Q61H): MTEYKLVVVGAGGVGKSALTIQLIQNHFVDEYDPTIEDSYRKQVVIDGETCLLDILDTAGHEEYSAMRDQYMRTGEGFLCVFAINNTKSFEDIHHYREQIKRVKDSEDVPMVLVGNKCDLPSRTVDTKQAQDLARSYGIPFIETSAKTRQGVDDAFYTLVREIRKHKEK
T2 sequence (P01116 1-169 isoform P01116-2 G12V): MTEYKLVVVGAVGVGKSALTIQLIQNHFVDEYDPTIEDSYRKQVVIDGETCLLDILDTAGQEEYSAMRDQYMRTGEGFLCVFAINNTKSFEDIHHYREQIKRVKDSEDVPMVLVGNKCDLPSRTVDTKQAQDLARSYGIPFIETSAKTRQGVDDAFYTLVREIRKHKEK
T6 sequence (P01116 1-169 isoform P01116-2 G13D): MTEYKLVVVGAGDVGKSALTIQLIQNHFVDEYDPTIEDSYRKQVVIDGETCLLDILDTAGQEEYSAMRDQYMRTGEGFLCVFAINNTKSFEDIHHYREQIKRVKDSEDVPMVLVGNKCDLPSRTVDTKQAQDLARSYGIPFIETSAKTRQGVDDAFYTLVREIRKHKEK
T1 sequence (P01116 1-169 isoform P01116-2 G12S): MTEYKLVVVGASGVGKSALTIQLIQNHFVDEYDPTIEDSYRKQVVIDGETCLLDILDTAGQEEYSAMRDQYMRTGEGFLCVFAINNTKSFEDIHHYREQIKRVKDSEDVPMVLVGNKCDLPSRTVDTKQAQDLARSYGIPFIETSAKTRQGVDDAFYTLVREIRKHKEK
T9 sequence (P01116 1-169 isoform P01116-2 G12A): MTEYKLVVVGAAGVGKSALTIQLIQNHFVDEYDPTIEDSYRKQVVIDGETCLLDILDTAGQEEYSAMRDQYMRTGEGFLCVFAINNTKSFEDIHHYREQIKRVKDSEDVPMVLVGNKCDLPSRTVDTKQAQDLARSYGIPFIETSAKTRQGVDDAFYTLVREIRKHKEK
T4 sequence (P01116 1-169 isoform P01116-2 G12R): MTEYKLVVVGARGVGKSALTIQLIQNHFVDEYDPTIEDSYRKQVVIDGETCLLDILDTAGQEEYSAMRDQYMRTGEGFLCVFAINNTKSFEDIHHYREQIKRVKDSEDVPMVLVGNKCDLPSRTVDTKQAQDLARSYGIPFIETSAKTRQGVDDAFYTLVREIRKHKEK
T5 sequence (P01116 1-169 isoform P01116-2 G12D): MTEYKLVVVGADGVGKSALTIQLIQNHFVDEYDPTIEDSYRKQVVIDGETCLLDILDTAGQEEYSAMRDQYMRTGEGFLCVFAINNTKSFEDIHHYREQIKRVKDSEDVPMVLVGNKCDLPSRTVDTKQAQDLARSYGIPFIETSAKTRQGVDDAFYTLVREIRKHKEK

Row | inhibition at 0.01 µM (KRas^G12S) [%] | IC50 (KRas^G12V) [nM] | inhibition at 0.01 µM (KRas^G12C) [%] | IC50 (KRas^G12R) [nM] | IC50 (KRas^G12D) [nM] | inhibition at 0.01 µM (KRas^G13D) [%] | inhibition at 0.01 µM (KRas^WT) [%] | IC50 [2] [nM] | IC50 [4] [nM] | inhibition at 0.01 µM (KRas^Q61H) [%] | inhibition at 0.01 µM (KRas^G12A) [%] | IC50 (KRas^G12S) [nM] | IC50 (KRas^G12C) [nM] | IC50 (KRas^G13D) [nM] | IC50 (KRas^WT) [nM] | Structure (SMILES) | inhibition at 0.1 µM [1] [%] | inhibition at 0.1 µM [3] [%] | inhibition at 0.1 µM [5] [%] | inhibition at 0.1 µM [6] [%] | inhibition at 0.1 µM [2] [%] | other results
1 | 79 | 3 | 84 | 5 | 2 | 86 | 79 | 88 | 55 | 79 | 79 |  |  |  |  | CN(C)C(=O)OC[C@@H]1CC[C@@]2(COc3nc(N4CCC[C@@](C)(O)C4)c4cnc(-c5cc(O)cc6ccc(F)c(F)c56)c(F)c4n3)CCCN12 [Example 548, ((3S,7aR)-7a-(((7-(7,8-difluoro-3-hydroxynaphthalen-1-yl)-8-fluoro-4-((R)-3-hydroxy-3-methylpiperidin-1-yl)pyrido[4,3-d]pyrimidin-2-yl)oxy)methyl)hexahydro-1H-pyrrolizin-3-yl)methyl dimethylcarbamate] | 29 | 38 | 59 | 38 |  | 
2 | 93 |  | 96 |  |  | 96 | 91 | 6 | 2 | 96 | 87 |  |  |  |  | CCc1c(F)ccc2cc(O)cc(-c3ncc4c(N5CCC[C@]6(CCO6)C5)nc(OCC5(CN(C)C)CC5)nc4c3F)c12 [Example 699, (S)-4-(2-((1-((dimethylamino)methyl)cyclopropyl)methoxy)-8-fluoro-4-(1-oxa-6-azaspiro[3.5]nonan-6-yl)pyrido[4,3-d]pyrimidin-7-yl)-5-ethyl-6-fluoronaphthalen-2-ol] | 82 | 95 | 101 | 80 |  | IC50 ([1]; HCT-116, HTRF pERK): 14 nM; IC50 ([3]; NCI-H460, HTRF pERK): 5 nM; IC50 ([5]; NCI-H358, HTRF pERK): 3 nM; IC50 ([6]; HTRF pERK): 2 nM
3 |  | 1050 |  | 2670 | 933 |  |  |  |  |  |  | 1400 | 1520 | 1410 | 1370 | Cc1cc2[nH]c(=O)[nH]c2c(-c2ncc3c(N4CCC[C@@](C)(O)C4)nc(OCC45CCCN4CCC5)nc3c2F)c1C [Example 733, 4-(8-fluoro-4-((R)-3-hydroxy-3-methylpiperidin-1-yl)-2-((tetrahydro-1H-pyrrolizin-7a(5H)-yl)methoxy)pyrido[4,3-d]pyrimidin-7-yl)-5,6-dimethyl-1,3-dihydro-2H-benzo[d]imidazol-2-one] |  |  | -2 | 7 | -10 | inhibition at 0.1 µM [4]: -27%; IC50 (KRas^Q61H): 2280 nM; IC50 (KRas^G12A): 1520 nM
4 |  | 664 |  | 640 | 2330 |  |  |  |  |  |  | 75 | 111 | 93 | 139 | Nc1nc2c(-c3ncc4c(N5CCCC6(C5)NC(=O)NC6=O)nc(OCC56CCCN5CCC6)nc4c3F)ccc(F)c2s1 (stereo not drawn) [Example 736, 7-(7-(2-amino-7-fluorobenzo[d]thiazol-4-yl)-8-fluoro-2-((tetrahydro-1H-pyrrolizin-7a(5H)-yl)methoxy)pyrido[4,3-d]pyrimidin-4-yl)-1,3,7-triazaspiro[4.5]decane-2,4-dione] |  |  | 5 | 2 | -4 | inhibition at 0.1 µM [4]: -3%; IC50 (KRas^Q61H): 26 nM; IC50 (KRas^G12A): 173 nM
